In patent US8017611B2, “Pyridine and pyrazine derivatives -083” (AstraZeneca AB, priority 2007, dated 2011):

Each compound was assayed against T1, recombinant Axl tyrosine kinase (Homo sapiens, UniProt P30530) (assay: In vitro Axl kinase assay (AlphaScreen), Test (a)). Conditions: 1 μM; mean calculated from a larger number of replicates than the first value.
T1 construct: encompassing amino acids 473 to 894 of Axl; GST (N); made in house; host or cells: SF126 insect cells
T1 sequence (P30530 473-894): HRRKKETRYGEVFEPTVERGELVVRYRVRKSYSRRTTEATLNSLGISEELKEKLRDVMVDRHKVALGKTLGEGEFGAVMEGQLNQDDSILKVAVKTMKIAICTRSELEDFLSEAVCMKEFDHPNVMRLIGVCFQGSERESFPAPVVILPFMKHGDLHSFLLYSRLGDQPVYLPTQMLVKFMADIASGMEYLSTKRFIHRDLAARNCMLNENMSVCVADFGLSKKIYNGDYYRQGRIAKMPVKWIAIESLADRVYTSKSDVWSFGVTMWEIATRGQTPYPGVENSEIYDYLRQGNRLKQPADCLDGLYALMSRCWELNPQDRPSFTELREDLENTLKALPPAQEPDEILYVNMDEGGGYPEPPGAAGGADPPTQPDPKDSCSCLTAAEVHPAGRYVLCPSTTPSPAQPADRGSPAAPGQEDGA
Format: biochemical

| SMILES | % Axl tyrosine kinase inhibition at 1 μM concentration (second value, †) |
| --- | --- |
| Nc1ncc(-c2ccc(CN3CCOCC3)cc2)cc1-c1nc2cnccc2o1 [Example 8A.18] | 99.0% |

Same assay, conditions: test compound at 1 μM; first value quoted

| SMILES | % Axl tyrosine kinase inhibition at 1 μM concentration |
| --- | --- |
| CCS(=O)(=O)c1cccc(-c2cnc(N)c(-c3nc4ccccc4o3)c2)c1 [Example 2.5] | 73.5% |
| Nc1ncc(-c2cnn(C3CCN(S(=O)(=O)C4CC4)CC3)c2)cc1-c1nc2ncccc2o1 [Example 55.2] | 98.8% |
| Nc1ncc(-c2cccc(NC(=O)C3CCNCC3)c2)cc1-c1nc2cnccc2o1 [Example 8A.26] | 97.9% |
| CN1CCCC(Cn2cc(-c3cnc(N)c(-c4nc5ccccc5o4)c3)cn2)C1 (stereo not shown) [Example 27.1] | 100.0% |
| CN1CCCC(COc2ccc(-c3cnc(N)c(-c4nc5ncccc5o4)c3)cc2)C1 (stereo not shown) [Example 43B.12] | 98.8% |
| Nc1ncc(-c2ccc(OCCN3CCNCC3)cc2)cc1-c1nc2ncccc2o1 [Example 43B.29] | 93.6% |
| Nc1ncc(-c2cccc(CN3CCCCC3)c2)cc1-c1nc2ncccc2o1 [Example 10A.11] | 88.4% |
| COc1cc(-c2cnc(N)c(-c3nc4ncccc4o3)c2)ccc1OC[C@@H]1CCCN1C [Example 43C.6] | 99.8% |
| CN1CCCCC1C1CCCN1C(=O)c1ccc(-c2cnc(N)c(-c3nc4cccnc4o3)c2)cc1 (stereo not shown) [Example 45A.15] | 99.7% |
| Nc1ncc(-c2ccc(C(=O)N3CCC(O)CC3)cc2)cc1-c1nc2cccnc2o1 [Example 9A.6] | 95.6% |
| COc1cc(-c2cnc(N)c(-c3nc4ncccc4o3)c2)ccc1OCCCN(C)C [Example 43C.10] | 98.9% |
| CCN1CCC(n2cc(-c3cnc(N)c(-c4nc5ccccc5o4)c3)cn2)CC1 [Example 4.1] | 100.0% |
| CN(C)CCCn1cc(-c2cnc(N)c(-c3nc4ccccc4o3)c2)cn1 [Example 27.4] | 99.2% |
| Nc1ncc(-c2ccc(CN3CCOCC3)cc2)cc1-c1nc2cnccc2o1 [Example 8A.18] | 98.9% |
| Nc1ncc(-c2cnn(CC3CNC3)c2)cc1-c1nc2ccccc2o1 [Example 29.4] | 99.1% |
| COc1cc(-c2cnc(N)c(-c3nc4ncccc4o3)c2)ccc1OCCCN1CCS(=O)(=O)CC1 [Example 43C.16] | 98.1% |
| N#CCc1ccc(-c2cnc(N)c(-c3nc4ccccc4o3)n2)cc1 [Example 20.19] | 98.3% |
| CN(C)CCCNC(=O)c1ccc(-c2cnc(N)c(-c3nc4cccnc4o3)c2)cc1 [Example 9A.11] | 98.8% |
| CN1CCN(CCNC(=O)c2ccc(-c3cnc(N)c(-c4nc5cccnc5o4)c3)cc2)CC1 [Example 45A.73] | 96.0% |

| SMILES | % Axl tyrosine kinase inhibition at 1 μM concentration |
| --- | --- |
| Nc1ncc(-c2cnn(C3CNC3)c2)cc1-c1nc2ccccc2o1 [Example 29.2] | 99.8% |
| CC(C)(C)OC(=O)N1CCC(C(=O)Nc2cccc(-c3cnc(N)c(-c4nc5cccnc5o4)c3)c2)CC1 [Example 9A.3] | 73.4% |
| C[C@H](O)C(=O)N1CCC(n2cc(-c3cnc(N)c(-c4nc5ccccc5o4)c3)c(CO)n2)CC1 [Example 67.2] | 100.0% |
| Cc1nn(C2CCN(C)CC2)cc1-c1cnc(N)c(-c2nc3c(F)cccc3o2)c1 [Example 41.23] | 100.0% |
| CN(C)CCCCNC(=O)c1ccc(-c2cnc(N)c(-c3nc4cccnc4o3)c2)cc1 [Example 45A.2] | 96.6% |
| Nc1ncc(-c2cnn(C3CCNCC3)c2)cc1-c1nc2c(F)cccc2o1 [Example 38A.2] | 100.0% |
| Nc1ncc(-c2ccc(OCCN3CCOCC3)cc2)cc1-c1nc2cccnc2o1 [Example 43A.2] | 97.2% |
| Nc1ncc(-c2cccc(CN3CCOCC3)c2)cc1-c1nc2ccccc2o1 [Example 2.22] | 97.9% |
| COc1cc(-c2cnc(N)c(-c3nc4ncccc4o3)c2)ccc1OCCOCCN1CCNCC1 [Example 43C.35] | 99.2% |
| CNS(=O)(=O)c1cccc(-c2cnc(N)c(-c3nc4ccncc4o3)c2)c1 [Example 11A.8] | 39.6% |
| COCc1ccccc1-c1cnc(N)c(-c2nc3ccccc3o2)c1 [Example 2.36] | 98.5% |
| CN(C)C1(CNC(=O)c2ccc(-c3cnc(N)c(-c4nc5cccnc5o4)c3)cc2)CCCCC1 [Example 45A.41] | 99.0% |
| COc1nn(C2CCNCC2)cc1-c1cnc(N)c(-c2nc3ccccc3o2)c1 [Example 25.2] | 100.0% |
| CN1CCC(NC(=O)c2ccc(-c3cnc(N)c(-c4nc5cccnc5o4)c3)cc2)C2CCCCC21 (stereo not shown) [Example 45A.44] | 99.3% |
| CN1CCC(CNC(=O)c2ccc(-c3cnc(N)c(-c4nc5cccnc5o4)c3)cc2)CC1 [Example 45A.25] | 97.8% |
| CN1CCCC1CCNC(=O)c1ccc(-c2cnc(N)c(-c3nc4cccnc4o3)c2)cc1 (stereo not shown) [Example 45A.5] | 98.8% |
| COc1cc(-c2cnc(N)c(-c3nc4ncccc4o3)c2)ccc1OC1CCNC1 (stereo not shown) [Example 43C.23] | 99.3% |
| CN1CCN(C(=O)c2cccc(-c3cnc(N)c(-c4nc5cnccc5o4)c3)c2)CC1 [Example 8A.19] | 94.3% |
| Nc1ncc(-c2cn(C3CCNCC3)nc2CO)cc1-c1nc2c(F)cccc2o1 [Example 62.6] | 100.0% |

| SMILES | % Axl tyrosine kinase inhibition at 1 μM concentration |
| --- | --- |
| COCCN1CCN(C(=O)c2ccc(-c3cnc(N)c(-c4nc5cccnc5o4)c3)cc2)CC1 [Example 45A.59] | 88.8% |
| CN(C)[C@H]1CCN(C(=O)c2ccc(-c3cnc(N)c(-c4nc5cccnc5o4)c3)cc2)C1 [Example 45A.77] | 96.1% |
| NCC1CCN(C(=O)c2ccc(-c3cnc(N)c(-c4nc5cccnc5o4)c3)cc2)CC1 [Example 45A.78] | 97.7% |
| Nc1ncc(-c2cnn(C3CCN(C(=O)CO)CC3)c2)cc1-c1nc2cccnc2o1 [Example 57.6] | 99.8% |
| Nc1ncc(-c2ccc(OCCC3CCCCN3)cc2)cc1-c1nc2ncccc2o1 (stereo not shown) [Example 43B.40] | 97.7% |
| Nc1ncc(-c2ccc(C(=O)N3CCC(O)CC3)cc2)cc1-c1nc2ccccc2o1 [Example 2.11] | 98.9% |
| CC1CN(CCCOc2ccc(-c3cnc(N)c(-c4nc5ncccc5o4)c3)cc2)CC(C)N1 (stereo not shown) [Example 43B.42] | 96.6% |
| Nc1ncc(-c2ccc3c(c2)OCCO3)cc1-c1nc2ccccc2o1 [Example 2.21] | 45.4% |
| Nc1ncc(-c2ccc(C(=O)N3CCOCC3)cc2)cc1-c1nc2cnccc2o1 [Example 8A.12] | 97.8% |
| Cc1nn(C2CCN(C)CC2)cc1-c1cnc(N)c(-c2nc3ccccc3o2)n1 [Example 41.21] | 100.0% |
| COCCC(=O)N1CCC(n2cc(-c3cnc(N)c(-c4nc5cccnc5o4)c3)cn2)CC1 [Example 59.8] | 98.2% |
| Nc1ncc(-c2ccc(C(=O)N3CCCCC3CN3CCCCC3)cc2)cc1-c1nc2cccnc2o1 (stereo not shown) [Example 45A.8] | 99.8% |
| CN(C)[C@@H]1CCN(C(=O)c2ccc(-c3cnc(N)c(-c4nc5cccnc5o4)c3)cc2)C1 [Example 45A.76] | 96.7% |
| CS(=O)(=O)N1CCC(n2cc(-c3cnc(N)c(-c4nc5ncccc5o4)c3)cn2)CC1 [Example 55.1] | 99.0% |
| CN1C2CCC1CC(n1cc(-c3cnc(N)c(-c4nc5ccccc5o4)c3)cn1)C2 (stereo not shown) [Example 27.6] | 99.9% |
| NC(=O)CN1CCC(n2cc(-c3cnc(N)c(-c4nc5ncccc5o4)c3)cn2)CC1 [Example 53.3] | 98.8% |
| CNCCOc1ccc(-c2cnc(N)c(-c3nc4ncccc4o3)c2)cc1OC [Example 43C.22] | 98.2% |
| Nc1ncc(-c2cccc(C(=O)NCCN3CCOCC3)c2)cc1-c1nc2ncccc2o1 [Example 10A.2] | 63.9% |
| C[C@H](O)C(=O)N1CCC(n2cc(-c3cnc(N)c(-c4nc5ncccc5o4)c3)cn2)CC1 [Example 57.3] | 98.7% |

Same assay, conditions: test compound at 1 μM; first value quoted; read-out: % Axl tyrosine kinase inhibition at 1 μM concentration

| SMILES | inhibition at 1 µM |
| --- | --- |
| Nc1ncc(-c2cnn(C3CCNCC3)c2)nc1-c1nc2ccccc2s1 [Example 19, 3-(1,3-Benzothiazol-2-yl)-5-[1-(4-piperidyl)pyrazol-4-yl]pyrazin-2-amine] | 99.6% |
| Nc1ncc(-c2ccc(N3CCNCC3)nc2)cc1-c1nc2ccccc2o1 [Example 2.19, 3-(1,3-Benzoxazol-2-yl)-5-[6-(piperazin-1-yl)-3-pyridyl]pyridin-2-amine] | 99.8% |
| Nc1ncc(-c2cn(C3CCNCC3)nc2CO)cc1-c1nc2ccccc2o1 [Example 25.13, [4-[6-amino-5-(1,3-benzoxazol-2-yl)-3-pyridyl]-1-(4-piperidyl)pyrazol-3-yl]methanol] | 100% |
